Measured values from US20250154212A1, “METHOD OF DISRUPTING MEMORY AND LIPOPEPTIDE FOR USE IN SUCH METHOD” (The Research Foundation for The State University of New York, priority 2023, published 2025).

Assays:
[1] = biological target: T1, KIBRA-PKMζ[PKCι/λ-P291Q;F297S] interaction (Homo sapiens, UniProt Q05513, F480S/P474Q); assay: BiFC assay of KIBRA with mutant PKMζ[PKCι/λ-P291Q;F297S] in HEK293T cells; assay type: cell-based; details: 10 μM
T1 construct: expressed in transfected cells; host or cells: HEK293T
T1 sequence (Q05513 184-592 P474Q/F480S): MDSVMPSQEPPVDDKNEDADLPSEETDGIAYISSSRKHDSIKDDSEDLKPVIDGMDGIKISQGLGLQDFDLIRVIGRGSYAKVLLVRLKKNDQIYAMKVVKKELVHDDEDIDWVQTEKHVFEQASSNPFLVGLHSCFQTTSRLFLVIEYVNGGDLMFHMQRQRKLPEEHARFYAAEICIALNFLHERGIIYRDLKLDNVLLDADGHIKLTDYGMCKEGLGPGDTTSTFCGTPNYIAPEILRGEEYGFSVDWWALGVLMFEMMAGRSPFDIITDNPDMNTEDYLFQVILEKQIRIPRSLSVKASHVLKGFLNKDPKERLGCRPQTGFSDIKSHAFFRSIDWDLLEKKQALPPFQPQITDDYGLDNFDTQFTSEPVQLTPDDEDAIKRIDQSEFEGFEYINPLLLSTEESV
Protocol: (§1) KIBRA-PKMζ BiFC was performed as previously described (28), using pVen1-FLAG-KIBRA and pVen2-HA-PKMζ, in which PKMζ was cloned between EcoR1 and BamH1 sites. The constructs pVen1 and pVen2 encode the N-terminus (amino acids 1-154) and C-terminus (amino acids 155-238) of the Venus protein, respectively, and the Venus fragments were on the N-terminal of the fusion proteins. pVen2-HA-PKMζ[PKCι/λ-P291Q;F297S] was generated by site-directed mutagenesis using forward-cctggagAagcAAatceggatcccccggtCcctgtccgte and reverse-gacggacaggGaccgggggatccggatTTgctTctccagg primers and the QuickChange II XL Site-Directed Mutagenesis Kit (Agilent Technologies), following manufacturer's instructions. Additional pVen2-HA-PKC isoforms and pVen2-HA-CaMKIIα in the pVen2-HA vector were generated by cloning the N-terminus of the coding sequence of each kinase (table S1) to obtain an in-frame fusion at the C-terminus of the pVen2-HA. Human versions of KIBRA and kinases were used, and all PCR amplified sequences and constructs were verified by DNA sequencing.
(§2) HEK293T cells were cultured in Dulbecco's Modified Eagle's Medium supplemented with 10% heat-inactivated fetal bovine serum, 100 U/ml penicillin, […] streptomycin, 2 mM glutamine, and 10 mM HEPES in a T75 tissue culture flask with canted neck and ventilated cap. […]

[2] = system: KIBRA with novel PKCs (PKCδ, PKCε, PKCη, PKCθ); assay: BiFC assay of KIBRA with novel PKCs in HEK293T cells; assay type: cell-based, human
Protocol: as §1, §2

SMILES: O=S(=O)(O)c1cc(O)c2c(S(=O)(=O)O)cc(S(=O)(=O)O)cc2c1 [ζ-stat, 1-naphthol-3,6,8-trisulphonic acid]
- effect on KIBRA interaction with mutated PKMζ[PKCι/λ-P291Q;F297S] (BiFC) [1]: does not inhibit
- effect on KIBRA interaction with mutated PKMζ[PKCι/λ-P291Q;F297S] (BiFC) ([1]; listed as z-stat): has no effects
- effect on BiFC of KIBRA with novel PKCs [2]: has no effect
